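Compound exposure: 48 hours, 5 concentrations, 96-well plates. GI50 is the concentration that inhibits growth by half. The concentration for full growth arrest is given as TGI.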
How the values were obtained:
Assay in all cases: DTP human tumour cell line panel, 48 h
[1] = tested on: U251 CNS
[2] = tested on: ACHN renal
[3] = tested on: RXF 393 renal
[4] = tested on: SK-MEL-5 melanoma
[5] = tested on: OVCAR-4 ovarian
[6] = tested on: COLO 205 colon
[7] = tested on: HCT-15 colon
[8] = tested on: SW-620 colon
[9] = tested on: KM12 colon
[10] = tested on: IGROV1 ovarian
[11] = tested on: K-562 leukemia
[12] = tested on: NCI/ADR-RES ovarian
[13] = tested on: TK-10 renal
[14] = tested on: HCT-116 colon
[15] = tested on: OVCAR-3 ovarian
[16] = tested on: SN12C renal
[17] = tested on: SR leukemia
[18] = tested on: NCI-H23 lung
[19] = tested on: NCI-H522 lung
[20] = tested on: SK-MEL-28 melanoma
[21] = tested on: NCI-H226 lung
[22] = tested on: T-47D breast
[23] = tested on: HOP-92 NSCLC
[24] = tested on: HL-60(TB) leukemia
[25] = tested on: DU-145 prostate
[26] = tested on: NCI-H460 lung
[27] = tested on: UACC-62 melanoma
[28] = tested on: OVCAR-5 ovarian
[29] = tested on: PC-3 prostate
[30] = tested on: SNB-75 CNS
[31] = tested on: SF-268 CNS
[32] = tested on: A498 renal
[33] = tested on: SNB-19 CNS
[34] = tested on: HS 578T breast
[35] = tested on: UO-31 renal
[36] = tested on: BT-549 breast
[37] = tested on: LOX IMVI melanoma
[38] = tested on: MDA-MB-468 breast
[39] = tested on: CCRF-CEM leukemia
[40] = tested on: CAKI-1 renal
[41] = tested on: HT29 colon
[42] = tested on: HOP-62 NSCLC
[43] = tested on: HCC-2998 colon
[44] = tested on: SK-OV-3 ovarian
[45] = tested on: SF-539 CNS
[46] = tested on: MDA-MB-435
[47] = tested on: 786-0 renal
[48] = tested on: MALME-3M melanoma
[49] = tested on: SK-MEL-2 melanoma
[50] = tested on: MDA-MB-231 breast
[51] = tested on: SF-295 CNS
[52] = tested on: MOLT-4 leukemia
[53] = tested on: MCF7 breast
[54] = tested on: EKVX NSCLC
[55] = tested on: UACC-257 melanoma
[56] = tested on: M14 melanoma
[57] = tested on: OVCAR-8 ovarian
[58] = tested on: A549 NSCLC
[59] = tested on: RPMI-8226 leukemia

`COc1ccc(C2(SCCNCc3cc(N(C)C)ccn3)c3ccccc3C=Cc3ccccc32)cc1` was tested. Which GI50 [1] did it give?
Its GI50 is 0.062 µM.

What about the TGI [1] of the same compound?
The TGI was 12.1 µM.

And the GI50 [2]?
Its GI50 is 1.9 µM.

And the TGI [2]?
Its TGI is 19.9 µM.

What about the GI50 [3] of the same compound?
The GI50 was 0.283 µM.

What about the TGI [3] of the same compound?
Its TGI is 3.39 µM.

What about the GI50 [4] of the same compound?
Its GI50 is 0.319 µM.

What about the TGI [4] of the same compound?
Its TGI is 11.8 µM.

And the GI50 [5]?
Its GI50 is 5.15 µM.

And the TGI [5]?
Its TGI is 22 µM.

And the GI50 [6]?
Its GI50 is 0.169 µM.

What about the TGI [6] of the same compound?
Its TGI is 0.521 µM.

And the GI50 [7]?
The GI50 was 0.051 µM.

What about the TGI [7] of the same compound?
The TGI was 13.5 µM.

And the GI50 [8]?
Its GI50 is 0.0746 µM.

And the TGI [8]?
Its TGI is 12.5 µM.

And the GI50 [9]?
The GI50 was 0.322 µM.

And the TGI [9]?
Its TGI is 11.7 µM.

What about the GI50 [10] of the same compound?
Its GI50 is 0.459 µM.

And the TGI [10]?
Its TGI is 19.2 µM.

What about the GI50 [11] of the same compound?
The GI50 was 0.0407 µM.

What about the TGI [11] of the same compound?
Its TGI is 17.4 µM.

And the GI50 [12]?
The GI50 was 0.205 µM.

What about the TGI [12] of the same compound?
The TGI was 0.513 µM.

What about the GI50 [13] of the same compound?
The GI50 was 12.1 µM.

What about the TGI [13] of the same compound?
The TGI was 25.8 µM.

What about the GI50 [14] of the same compound?
The GI50 was 0.0404 µM.

And the TGI [14]?
The TGI was 11.6 µM.

And the GI50 [15]?
The GI50 was 0.342 µM.

What about the TGI [15] of the same compound?
The TGI was 12 µM.

What about the GI50 [16] of the same compound?
Its GI50 is 0.29 µM.

And the TGI [16]?
The TGI was 15.2 µM.

And the GI50 [17]?
The GI50 was 0.057 µM.

And the TGI [17]?
The TGI was over 33.2 µM.

What about the GI50 [18] of the same compound?
The GI50 was 0.463 µM.

And the TGI [18]?
Its TGI is 13.9 µM.

What about the GI50 [19] of the same compound?
The GI50 was 0.09 µM.

What about the TGI [19] of the same compound?
The TGI was 0.455 µM.

And the GI50 [20]?
Its GI50 is 5.29 µM.

And the TGI [20]?
Its TGI is 21.2 µM.

And the GI50 [21]?
Its GI50 is 4.8 µM.

What about the TGI [21] of the same compound?
The TGI was 19.2 µM.

What about the GI50 [22] of the same compound?
Its GI50 is 0.475 µM.

What about the TGI [22] of the same compound?
Its TGI is 18.7 µM.

And the GI50 [23]?
Its GI50 is 1.31 µM.

What about the TGI [23] of the same compound?
The TGI was 6.25 µM.

And the GI50 [24]?
The GI50 was 0.0623 µM.

What about the TGI [24] of the same compound?
The TGI was 13.7 µM.

What about the GI50 [25] of the same compound?
The GI50 was 0.335 µM.

And the TGI [25]?
The TGI was 3.63 µM.

What about the GI50 [26] of the same compound?
Its GI50 is 0.281 µM.

And the TGI [26]?
The TGI was 11.2 µM.

And the GI50 [27]?
Its GI50 is 0.46 µM.

And the TGI [27]?
The TGI was 17.7 µM.

What about the GI50 [28] of the same compound?
Its GI50 is 0.364 µM.

And the TGI [28]?
Its TGI is 12.5 µM.

What about the GI50 [29] of the same compound?
Its GI50 is 0.395 µM.

What about the TGI [29] of the same compound?
The TGI was 6.06 µM.

And the GI50 [30]?
Its GI50 is 0.176 µM.

What about the TGI [30] of the same compound?
Its TGI is 0.907 µM.

What about the GI50 [31] of the same compound?
Its GI50 is 0.717 µM.

And the TGI [31]?
The TGI was 18.5 µM.

What about the GI50 [32] of the same compound?
The GI50 was 11.5 µM.

What about the TGI [32] of the same compound?
Its TGI is 24.9 µM.

And the GI50 [33]?
Its GI50 is 0.534 µM.

What about the TGI [33] of the same compound?
Its TGI is 19.1 µM.

And the GI50 [34]?
The GI50 was 0.204 µM.

And the TGI [34]?
Its TGI is 1.77 µM.

What about the GI50 [35] of the same compound?
The GI50 was 1.76 µM.

What about the TGI [35] of the same compound?
The TGI was 17.8 µM.

What about the GI50 [36] of the same compound?
Its GI50 is 0.471 µM.

What about the TGI [36] of the same compound?
The TGI was 9.58 µM.

And the GI50 [37]?
Its GI50 is 0.557 µM.

And the TGI [37]?
Its TGI is 12.3 µM.

And the GI50 [38]?
The GI50 was 0.0509 µM.

And the TGI [38]?
Its TGI is 0.388 µM.

What about the GI50 [39] of the same compound?
Its GI50 is 0.106 µM.

And the TGI [39]?
The TGI was 19.3 µM.

What about the GI50 [40] of the same compound?
The GI50 was 1.33 µM.

And the TGI [40]?
The TGI was 19.2 µM.

What about the GI50 [41] of the same compound?
The GI50 was 0.337 µM.

What about the TGI [41] of the same compound?
Its TGI is 7 µM.

What about the GI50 [42] of the same compound?
Its GI50 is 0.528 µM.

What about the TGI [42] of the same compound?
Its TGI is 17.9 µM.

What about the GI50 [43] of the same compound?
The GI50 was 0.0932 µM.

What about the TGI [43] of the same compound?
Its TGI is 0.527 µM.

And the GI50 [44]?
Its GI50 is 0.497 µM.

What about the TGI [44] of the same compound?
The TGI was 13.9 µM.

What about the GI50 [45] of the same compound?
The GI50 was 0.227 µM.

And the TGI [45]?
Its TGI is 0.594 µM.

And the GI50 [46]?
The GI50 was 0.0253 µM.

What about the TGI [46] of the same compound?
Its TGI is 0.0639 µM.

What about the GI50 [47] of the same compound?
The GI50 was 0.873 µM.

What about the TGI [47] of the same compound?
Its TGI is 17.2 µM.

What about the GI50 [48] of the same compound?
The GI50 was 0.514 µM.

And the TGI [48]?
Its TGI is 15.8 µM.

And the GI50 [49]?
The GI50 was 0.252 µM.

What about the TGI [49] of the same compound?
Its TGI is 0.724 µM.

And the GI50 [50]?
The GI50 was 0.143 µM.

And the TGI [50]?
The TGI was 0.446 µM.

And the GI50 [51]?
The GI50 was 0.268 µM.

What about the TGI [51] of the same compound?
Its TGI is 14.2 µM.

What about the GI50 [52] of the same compound?
Its GI50 is 0.61 µM.

And the TGI [52]?
Its TGI is 12 µM.

What about the GI50 [53] of the same compound?
The GI50 was 0.04 µM.

What about the TGI [53] of the same compound?
Its TGI is 13.2 µM.

What about the GI50 [54] of the same compound?
Its GI50 is 0.382 µM.

And the TGI [54]?
Its TGI is 19.4 µM.

And the GI50 [55]?
Its GI50 is 10.8 µM.

And the TGI [55]?
The TGI was 23.9 µM.

And the GI50 [56]?
Its GI50 is 0.0347 µM.

What about the TGI [56] of the same compound?
Its TGI is 0.621 µM.

What about the GI50 [57] of the same compound?
The GI50 was 0.238 µM.

And the TGI [57]?
The TGI was 15.7 µM.

What about the GI50 [58] of the same compound?
The GI50 was 0.147 µM.

And the TGI [58]?
The TGI was 16.8 µM.

And the GI50 [59]?
Its GI50 is 0.124 µM.

What about the TGI [59] of the same compound?
The TGI was over 49 µM.
